Data: patent publication US10168342B2, “Lipid probes and uses thereof” (THE SCRIPPS RESEARCH INSTITUTE, priority 2015, dated 2019)
Read-outs that look alike come from different tables or passages of the source.

How the values were obtained:
[1] = biological target: AEA-DA lipid probe targets in Neuro2a cells (Mus musculus, UniProt Q80YV4); details: competitor 200 μM
[2] = biological target: T1, lipid-binding proteins in Neuro2a cells (Mus musculus, UniProt Q3KNM2); assay: SILAC MS mapping of lipid probe targets (probe-versus-No UV, probe-versus-probe) in Neuro2a cells; type: cell-based; details: AEA-DA probe vs NoUV
T1 construct: endogenous in cells; host or cells: Neuro2a

[3] = biological target: T2, lipid-binding proteins in Neuro2a cells (Mus musculus, UniProt Q505D7); assay: as above; type: cell-based; details: AEA-DA probe vs NoUV
T2 construct: endogenous in cells; host or cells: Neuro2a

[4] = biological target: T3, lipid-binding proteins in Neuro2a cells (Mus musculus, UniProt Q60930); assay: as above; type: cell-based; details: AEA-DA probe vs NoUV
T3 construct: endogenous in cells; host or cells: Neuro2a
T3 sequence (Q60930 whole entry): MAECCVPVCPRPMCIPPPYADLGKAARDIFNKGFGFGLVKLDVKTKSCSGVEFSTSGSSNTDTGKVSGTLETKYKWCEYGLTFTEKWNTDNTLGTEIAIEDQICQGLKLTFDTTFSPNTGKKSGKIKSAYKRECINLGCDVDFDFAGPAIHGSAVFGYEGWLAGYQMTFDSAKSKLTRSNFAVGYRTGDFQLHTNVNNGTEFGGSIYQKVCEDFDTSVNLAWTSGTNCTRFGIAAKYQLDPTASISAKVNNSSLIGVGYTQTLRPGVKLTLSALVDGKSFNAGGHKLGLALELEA

[5] = biological target: T4, lipid-binding proteins in Neuro2a cells (Mus musculus, UniProt Q8BIJ6); assay: as above; type: cell-based; details: protein Iars2, AEA-DA probe, No UV control
T4 construct: endogenous in cells; host or cells: Neuro2a

[6] = biological target: T5, lipid-binding proteins in Neuro2a cells (Mus musculus, UniProt Q8BJ03); assay: as above; type: cell-based; details: protein Cox15, AEA-DA probe, No UV control
T5 construct: endogenous in cells; host or cells: Neuro2a

[7] = biological target: T6, lipid-binding proteins in Neuro2a cells (Mus musculus, UniProt Q8VCB1); assay: as above; type: cell-based; details: AEA-DA probe vs NoUV
T6 construct: endogenous in cells; host or cells: Neuro2a

[8] = biological target: T7, lipid-binding proteins in Neuro2a cells (Mus musculus, UniProt Q91VM5); assay: as above; type: cell-based; details: protein Rbmxl1, AEA-DA probe, No UV control
T7 construct: endogenous in cells; host or cells: Neuro2a

[9] = biological target: T8, lipid-binding proteins in Neuro2a cells (Mus musculus, UniProt Q9R1J0); assay: as above; type: cell-based; details: AEA-DA probe vs NoUV
T8 construct: endogenous in cells; host or cells: Neuro2a

[10] = biological target: T9, AEA-DA-modified peptides in Neuro2a cells (Mus musculus, UniProt O55022); assay: isoTOP-ABPP mapping of AEA-DA-modified peptides in Neuro2a cells; type: cell-based; details: probe 100 μM, 12 replicates
T9 construct: endogenous in cells; host or cells: Neuro2a
T9 sequence (O55022 whole entry): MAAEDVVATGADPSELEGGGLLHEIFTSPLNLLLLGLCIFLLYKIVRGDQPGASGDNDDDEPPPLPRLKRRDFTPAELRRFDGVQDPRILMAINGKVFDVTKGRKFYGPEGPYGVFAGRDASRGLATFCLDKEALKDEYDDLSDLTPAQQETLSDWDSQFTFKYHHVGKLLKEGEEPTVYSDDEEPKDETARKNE

[11] = biological target: T10, AEA-DA-modified peptides in Neuro2a cells (Mus musculus, UniProt P70699); assay: as above; type: cell-based; details: AEA-DA-modified peptide GAA P70699 904-935, SEQ ID NO 41; probe 100 μM, 12 replicates
T10 construct: endogenous in cells; host or cells: Neuro2a

[12] = biological target: T11, AEA-DA-modified peptides in Neuro2a cells (Mus musculus, UniProt Q62351); assay: as above; type: cell-based; details: AEA-DA-modified peptide TFRC Q62351 7-23, SEQ ID NO 110; probe 100 μM, 12 replicates
T11 construct: endogenous in cells; host or cells: Neuro2a

[13] = biological target: AEA-DA lipid probe targets in Neuro2a cells (Mus musculus, UniProt Q9QXS1); details: competitor 25 μM
Sequence of AEA-DA lipid probe targets in Neuro2a cells (Mus musculus, UniProt Q9QXS1) (Q9QXS1 whole entry): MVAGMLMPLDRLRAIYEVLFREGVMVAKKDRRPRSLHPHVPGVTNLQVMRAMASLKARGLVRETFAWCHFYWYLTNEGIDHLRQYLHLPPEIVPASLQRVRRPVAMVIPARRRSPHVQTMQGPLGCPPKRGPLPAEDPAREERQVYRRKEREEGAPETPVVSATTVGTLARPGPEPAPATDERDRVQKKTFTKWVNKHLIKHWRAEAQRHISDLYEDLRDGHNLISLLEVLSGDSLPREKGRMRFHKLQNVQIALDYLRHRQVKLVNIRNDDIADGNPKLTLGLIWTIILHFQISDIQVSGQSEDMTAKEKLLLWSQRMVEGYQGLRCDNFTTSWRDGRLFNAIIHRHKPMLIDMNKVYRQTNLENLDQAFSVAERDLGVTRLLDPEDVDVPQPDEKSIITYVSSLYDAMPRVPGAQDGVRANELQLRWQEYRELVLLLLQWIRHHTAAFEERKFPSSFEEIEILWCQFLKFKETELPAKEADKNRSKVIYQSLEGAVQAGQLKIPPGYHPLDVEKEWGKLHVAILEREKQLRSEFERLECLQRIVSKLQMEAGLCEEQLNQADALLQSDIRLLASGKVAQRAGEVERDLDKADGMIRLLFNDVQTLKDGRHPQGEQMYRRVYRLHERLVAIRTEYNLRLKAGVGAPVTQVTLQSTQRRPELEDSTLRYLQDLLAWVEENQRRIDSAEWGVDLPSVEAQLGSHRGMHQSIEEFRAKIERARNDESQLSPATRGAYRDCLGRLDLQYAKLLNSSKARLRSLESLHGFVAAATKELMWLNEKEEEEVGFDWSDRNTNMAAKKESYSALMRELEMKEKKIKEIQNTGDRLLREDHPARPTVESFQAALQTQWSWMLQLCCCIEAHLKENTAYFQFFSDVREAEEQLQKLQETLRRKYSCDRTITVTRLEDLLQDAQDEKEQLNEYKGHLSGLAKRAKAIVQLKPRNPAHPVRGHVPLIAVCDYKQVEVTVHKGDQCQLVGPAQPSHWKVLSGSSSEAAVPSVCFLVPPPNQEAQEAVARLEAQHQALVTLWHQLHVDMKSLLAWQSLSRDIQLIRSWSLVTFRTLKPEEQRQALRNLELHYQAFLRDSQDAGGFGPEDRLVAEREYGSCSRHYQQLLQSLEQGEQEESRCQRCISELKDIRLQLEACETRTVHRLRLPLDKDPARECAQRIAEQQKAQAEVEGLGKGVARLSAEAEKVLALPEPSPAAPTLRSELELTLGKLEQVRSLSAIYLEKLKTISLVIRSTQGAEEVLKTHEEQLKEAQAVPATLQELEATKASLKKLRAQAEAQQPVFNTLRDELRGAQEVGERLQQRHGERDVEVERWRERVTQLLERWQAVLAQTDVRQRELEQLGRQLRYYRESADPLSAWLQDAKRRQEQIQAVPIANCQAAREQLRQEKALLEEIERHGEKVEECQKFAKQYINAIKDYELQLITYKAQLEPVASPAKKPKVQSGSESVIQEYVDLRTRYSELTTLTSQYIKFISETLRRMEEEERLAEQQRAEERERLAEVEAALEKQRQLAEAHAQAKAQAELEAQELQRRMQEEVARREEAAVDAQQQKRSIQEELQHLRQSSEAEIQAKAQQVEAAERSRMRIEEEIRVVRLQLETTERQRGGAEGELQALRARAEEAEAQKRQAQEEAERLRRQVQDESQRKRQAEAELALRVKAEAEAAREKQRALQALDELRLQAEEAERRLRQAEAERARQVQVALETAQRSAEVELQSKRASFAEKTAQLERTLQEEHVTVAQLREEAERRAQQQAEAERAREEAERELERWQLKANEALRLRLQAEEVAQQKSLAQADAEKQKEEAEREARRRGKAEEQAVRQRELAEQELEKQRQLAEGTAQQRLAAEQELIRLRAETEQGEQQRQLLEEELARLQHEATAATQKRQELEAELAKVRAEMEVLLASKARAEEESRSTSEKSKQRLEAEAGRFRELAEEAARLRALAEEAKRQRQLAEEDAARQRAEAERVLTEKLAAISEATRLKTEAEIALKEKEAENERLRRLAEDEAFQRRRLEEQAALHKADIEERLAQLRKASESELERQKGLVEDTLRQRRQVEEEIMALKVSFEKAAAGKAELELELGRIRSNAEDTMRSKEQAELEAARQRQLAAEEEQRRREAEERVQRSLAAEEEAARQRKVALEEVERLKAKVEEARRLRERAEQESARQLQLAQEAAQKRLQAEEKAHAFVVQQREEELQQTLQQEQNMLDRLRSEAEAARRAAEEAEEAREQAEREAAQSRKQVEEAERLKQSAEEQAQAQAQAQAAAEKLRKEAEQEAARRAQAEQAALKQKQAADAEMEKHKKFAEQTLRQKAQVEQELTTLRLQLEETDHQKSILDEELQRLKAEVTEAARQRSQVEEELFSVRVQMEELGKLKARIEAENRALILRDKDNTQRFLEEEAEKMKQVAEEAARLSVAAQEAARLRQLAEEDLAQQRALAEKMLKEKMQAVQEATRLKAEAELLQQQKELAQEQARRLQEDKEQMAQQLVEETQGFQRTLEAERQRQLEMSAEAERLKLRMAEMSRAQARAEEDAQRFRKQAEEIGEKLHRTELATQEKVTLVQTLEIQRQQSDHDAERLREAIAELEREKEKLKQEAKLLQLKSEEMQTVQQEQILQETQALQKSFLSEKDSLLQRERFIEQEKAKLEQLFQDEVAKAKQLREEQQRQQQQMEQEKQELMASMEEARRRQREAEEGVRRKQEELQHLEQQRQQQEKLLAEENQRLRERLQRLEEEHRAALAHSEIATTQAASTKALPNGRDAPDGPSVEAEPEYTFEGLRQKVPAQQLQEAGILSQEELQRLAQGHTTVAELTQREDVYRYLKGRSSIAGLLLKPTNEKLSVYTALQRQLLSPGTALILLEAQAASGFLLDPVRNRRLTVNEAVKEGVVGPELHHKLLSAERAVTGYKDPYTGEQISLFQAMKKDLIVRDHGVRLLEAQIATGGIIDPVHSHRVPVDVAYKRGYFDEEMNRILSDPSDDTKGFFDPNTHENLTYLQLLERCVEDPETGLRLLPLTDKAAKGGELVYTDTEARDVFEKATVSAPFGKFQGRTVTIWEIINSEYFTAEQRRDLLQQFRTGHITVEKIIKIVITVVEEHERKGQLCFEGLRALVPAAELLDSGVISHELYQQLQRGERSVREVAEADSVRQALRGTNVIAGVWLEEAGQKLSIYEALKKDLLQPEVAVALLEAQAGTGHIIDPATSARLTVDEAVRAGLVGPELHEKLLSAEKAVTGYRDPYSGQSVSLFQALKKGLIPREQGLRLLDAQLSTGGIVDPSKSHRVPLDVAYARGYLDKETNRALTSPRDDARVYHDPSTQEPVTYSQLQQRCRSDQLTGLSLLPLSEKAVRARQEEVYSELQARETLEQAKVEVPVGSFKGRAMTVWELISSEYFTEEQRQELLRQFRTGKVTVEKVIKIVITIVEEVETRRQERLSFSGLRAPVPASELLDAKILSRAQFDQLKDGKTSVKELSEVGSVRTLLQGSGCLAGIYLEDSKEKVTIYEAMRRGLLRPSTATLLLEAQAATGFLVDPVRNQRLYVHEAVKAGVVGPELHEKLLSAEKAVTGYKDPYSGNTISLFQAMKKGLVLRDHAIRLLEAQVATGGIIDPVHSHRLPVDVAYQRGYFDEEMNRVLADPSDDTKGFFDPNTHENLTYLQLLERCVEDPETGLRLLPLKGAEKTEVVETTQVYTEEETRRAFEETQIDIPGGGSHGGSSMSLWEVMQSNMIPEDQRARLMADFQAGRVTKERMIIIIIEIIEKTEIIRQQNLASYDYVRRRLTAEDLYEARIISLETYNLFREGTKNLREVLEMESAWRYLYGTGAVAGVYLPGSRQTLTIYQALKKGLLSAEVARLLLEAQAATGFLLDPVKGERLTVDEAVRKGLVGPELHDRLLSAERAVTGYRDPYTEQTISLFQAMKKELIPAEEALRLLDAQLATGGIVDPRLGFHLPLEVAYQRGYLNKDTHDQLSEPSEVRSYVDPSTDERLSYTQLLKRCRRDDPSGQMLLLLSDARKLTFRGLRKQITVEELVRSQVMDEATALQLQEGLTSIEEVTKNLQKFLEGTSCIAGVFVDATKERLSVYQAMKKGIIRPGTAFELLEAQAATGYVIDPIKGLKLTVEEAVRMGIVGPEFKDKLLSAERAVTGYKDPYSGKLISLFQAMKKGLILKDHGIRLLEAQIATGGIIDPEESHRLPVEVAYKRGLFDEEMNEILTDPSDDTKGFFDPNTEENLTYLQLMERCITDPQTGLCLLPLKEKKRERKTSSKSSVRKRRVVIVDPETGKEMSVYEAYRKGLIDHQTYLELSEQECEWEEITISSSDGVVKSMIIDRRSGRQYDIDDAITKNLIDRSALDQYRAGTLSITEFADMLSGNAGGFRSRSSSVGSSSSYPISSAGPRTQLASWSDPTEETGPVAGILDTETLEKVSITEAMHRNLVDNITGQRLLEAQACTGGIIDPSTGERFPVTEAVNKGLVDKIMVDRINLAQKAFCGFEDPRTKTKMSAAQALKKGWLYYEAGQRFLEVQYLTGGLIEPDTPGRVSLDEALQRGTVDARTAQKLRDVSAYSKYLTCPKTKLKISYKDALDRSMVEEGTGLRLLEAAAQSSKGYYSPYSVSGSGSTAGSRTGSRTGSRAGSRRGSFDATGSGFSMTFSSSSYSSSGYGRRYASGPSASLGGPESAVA

[14] = biological target: AEA-DA lipid probe targets in Neuro2a cells (Mus musculus, UniProt P21619); details: protein Lmnb2; Neuro2a cells; competitor 50 μM
[15] = biological target: T12, AEA-DA lipid probe targets in Neuro2a cells (Mus musculus, UniProt P45878); details: protein Fkbp2, Neuro2a cells
T12 sequence (P45878 23-140): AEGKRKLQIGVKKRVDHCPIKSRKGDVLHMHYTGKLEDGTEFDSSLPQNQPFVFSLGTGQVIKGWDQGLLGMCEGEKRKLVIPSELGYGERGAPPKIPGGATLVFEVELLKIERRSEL

CCCCC/C=C\C/C=C\C/C=C\C/C=C\CCCC(=O)NCCO [AEA, anandamide, reference compound]
SILAC ratio Pank4 [1]: 1.6

C#CCCCC1(CC/C=C\C/C=C\C/C=C\CCCC(=O)NCCO)N=N1 [AEA-DA, (5Z,8Z,11Z)-N-(2-hydroxyethyl)-14-(3-(pent-4-yn-1-yl)-3H-diazirin-3-yl)tetradeca-5,8,11-trienamide]
SILAC ratio, MARCH5 (Q3KNM2) [2]: 20.0 | SILAC ratio, OPA3 (Q505D7) [3]: 20.0 | SILAC ratio, VDAC2 (P45880) [4]: 16.5 | SILAC ratio, AEA-DA probe versus No UV [5]: 20.0 | SILAC ratio, AEA-DA probe versus No UV [6]: 12.3 | SILAC ratio, TMEM48 (Q8VCB1) [7]: 14.5 | SILAC ratio, AEA-DA probe versus No UV [8]: 6.0 | SILAC ratio, NSDHL (Q15738) [9]: 9.4 | Times observed ([10]; AEA-DA-modified peptide PGRMC1 O55022 48-68, SEQ ID NO 82): 2 | Times observed ([10]; AEA-DA-modified peptide PGRMC1 O55022 106-120, SEQ ID NO 81): 12 | Times observed [11]: 11 | Times observed [12]: 2

O=C(/C=C/c1cccnc1)NCCCCC1CCN(C(=O)c2ccccc2)CC1 [FK-866, reference compound]
SILAC ratio, Plec [13]: 2.1

CN1CCN(C(=O)c2[nH]c3ccc([N+](=O)[O-])cc3c2-c2ccccc2)CC1 [MJN228, (4-Methylpiperazin-1-yl)(5-nitro-3-phenyl-1H-indol-2-yl)methanone]
SILAC ratio (AEA-DA competition) [14]: 1.9 | SILAC ratio (AEA-DA competition) ([15]; competitor 10 μM): 1.1 | SILAC ratio (AEA-DA competition) ([15]; competitor 25 μM): 1.6 | SILAC ratio (AEA-DA competition) ([15]; competitor 100 μM): 1.1
